We go through five compounds from patent publication US10980808B2, “Calmodulin inhibitors, Chk2 inhibitors and RSK inhibitors for the treatment of ribosomal disorders and ribosomapathies” (THE CHILDREN'S MEDICAL CENTER CORPORATION, priority 2016, dated 2021).

Where a name gives a salt, the structure may show the parent alone.

Test [1] concerns p70S6K and RPS6 phosphorylation in cells. Nature of the test: phosphorylation after calcium chelation in cells. The class given is cell-based. The following applies: chelating calcium in cells. An excerpt:
(§1) We hypothesize that the CaM inhibition is indirect, CaM is needed for calcium signaling. […] RSK inhibitor: SL and B1. P70s6K inhibitor: PF. In Summary we show: 1) CaM and Chk2 inhibitors reduce S392 phosphorylation of p53—to a much greater extent during ribosomal protein deficiency 2) CaM and Chk2 inhibitors also decrease P-p70S6K to a much greater extent during RP deficiency 3) p70S6K can directly phosphorylate p53 S392 in vitro 4) Total protein levels of RSK, p70S6K and rps6 are increased ruing RP deficiency in vitro and in vivo 5) RSK2 is increased in our microarray in […] vs WT 24 hpf embryos. Protein validates this upregulation 6) Calcium levels are increased during RP deficiency 7) Blocking the CaM-Calcium signaling (CaM inhibitors) or directly inhibiting RSK or p70S6K (Chk2 inhibitors) leads to a decrease in P-p53 and p53 activity. Reduced p53 activity leads to fewer RBCs undergoing apoptosis, alleviating the anemia.

Test [2] deals with calcium in lysates of RPS19 knocked down cells. Nature of the test: colorimetric calcium detection in cellular lysates. The class given is cell-based.
Text: as §1

Test [3] concerns the target RSK2 (Homo sapiens, UniProt P51812). The following applies: in vitro; cited from earlier work.
Test [4] deals with RSK4 (Homo sapiens, UniProt Q9UK32). The note with it: in vitro; cited from earlier work.
Test [5] has as its target RSK3 (Homo sapiens, UniProt Q15349). The note with it: in vitro; cited from earlier work.
Test [6] concerns the target RSK1 (Homo sapiens, UniProt Q15418). The following applies: in vitro; cited from earlier work.
Test [7] concerns Chk2 activation in HT29 cells. The note with it: cited from earlier work.
Test [8] concerns mouse thymocytes. The following applies: cited from earlier work.
For test [9], the system named is rps29−/− zebrafish embryos. Nature of the test: hemoglobin (benzidine staining) rescue in rps29-/- zebrafish embryos. Type of test: in vivo. The following applies: benzidine staining.
Test [10] deals with p70S6K (Homo sapiens, UniProt P23443). The experiment in a line: in vitro kinase profiling (Thermo Fisher SelectScreen), p70S6K. Type of test: biochemical. An excerpt:
We asked if CaM and Chk2 inhibitors are blocking specific kinases. The known kinases that phosphorylate S392 are CK2 and p38. […] Thus, the question became what is TFP inhibiting upstream? Is it inhibiting a kinase that phosphorylates S392? We submitted CaM and Chk2 inhibitors for Kinase profiling using Thermo Fisher's SelectScreen.

Test [11] concerns Raf. The note with it: upstream kinase; cited from earlier work.
The subject of test [12] is PKC. The following applies: upstream kinase; cited from earlier work.
Test [13] concerns MEK. The note with it: upstream kinase; cited from earlier work.
Test [14] relates to rps29−/− zebrafish embryos. The following applies: previously demonstrated; cited from earlier work.

Sequence of RSK4 (Q9UK32 whole entry): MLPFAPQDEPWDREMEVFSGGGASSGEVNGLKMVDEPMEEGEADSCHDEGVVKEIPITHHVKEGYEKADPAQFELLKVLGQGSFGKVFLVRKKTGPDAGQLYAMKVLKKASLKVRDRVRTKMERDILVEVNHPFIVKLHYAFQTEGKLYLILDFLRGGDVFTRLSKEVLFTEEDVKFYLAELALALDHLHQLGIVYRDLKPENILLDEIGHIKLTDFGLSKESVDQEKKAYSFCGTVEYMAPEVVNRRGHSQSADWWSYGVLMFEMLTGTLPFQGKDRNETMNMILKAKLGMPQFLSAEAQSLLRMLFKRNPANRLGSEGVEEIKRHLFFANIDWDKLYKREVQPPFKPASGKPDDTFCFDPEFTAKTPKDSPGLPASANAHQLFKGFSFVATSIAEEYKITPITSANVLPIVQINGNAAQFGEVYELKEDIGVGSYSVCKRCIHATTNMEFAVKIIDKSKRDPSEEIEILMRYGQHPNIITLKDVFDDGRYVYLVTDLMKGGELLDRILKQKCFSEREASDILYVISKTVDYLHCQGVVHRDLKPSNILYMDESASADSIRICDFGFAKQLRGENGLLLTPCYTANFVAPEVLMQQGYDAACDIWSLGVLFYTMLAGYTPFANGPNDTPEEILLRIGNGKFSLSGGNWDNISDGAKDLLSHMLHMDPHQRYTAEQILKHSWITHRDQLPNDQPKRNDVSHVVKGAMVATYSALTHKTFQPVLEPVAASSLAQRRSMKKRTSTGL
Sequence of RSK3 (Q15349 whole entry): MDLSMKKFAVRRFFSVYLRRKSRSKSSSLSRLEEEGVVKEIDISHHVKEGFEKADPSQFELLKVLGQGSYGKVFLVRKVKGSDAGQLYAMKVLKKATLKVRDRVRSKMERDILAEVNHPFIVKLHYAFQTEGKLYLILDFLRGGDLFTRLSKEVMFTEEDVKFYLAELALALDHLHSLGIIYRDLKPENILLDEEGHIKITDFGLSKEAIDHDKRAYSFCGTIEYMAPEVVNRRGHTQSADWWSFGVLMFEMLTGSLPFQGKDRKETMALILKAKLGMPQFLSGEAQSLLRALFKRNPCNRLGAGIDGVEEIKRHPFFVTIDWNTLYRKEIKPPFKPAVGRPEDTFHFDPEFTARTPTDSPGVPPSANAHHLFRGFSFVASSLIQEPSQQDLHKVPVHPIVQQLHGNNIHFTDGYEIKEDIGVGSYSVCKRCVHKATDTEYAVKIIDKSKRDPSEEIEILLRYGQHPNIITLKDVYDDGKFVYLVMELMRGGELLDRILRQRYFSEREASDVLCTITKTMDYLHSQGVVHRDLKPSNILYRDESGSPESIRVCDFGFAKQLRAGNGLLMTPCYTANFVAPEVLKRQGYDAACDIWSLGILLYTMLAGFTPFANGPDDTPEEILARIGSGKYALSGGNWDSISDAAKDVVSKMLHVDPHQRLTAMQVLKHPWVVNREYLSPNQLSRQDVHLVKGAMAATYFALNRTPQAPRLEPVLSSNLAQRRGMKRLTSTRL
Sequence of RSK2 (P51812 whole entry): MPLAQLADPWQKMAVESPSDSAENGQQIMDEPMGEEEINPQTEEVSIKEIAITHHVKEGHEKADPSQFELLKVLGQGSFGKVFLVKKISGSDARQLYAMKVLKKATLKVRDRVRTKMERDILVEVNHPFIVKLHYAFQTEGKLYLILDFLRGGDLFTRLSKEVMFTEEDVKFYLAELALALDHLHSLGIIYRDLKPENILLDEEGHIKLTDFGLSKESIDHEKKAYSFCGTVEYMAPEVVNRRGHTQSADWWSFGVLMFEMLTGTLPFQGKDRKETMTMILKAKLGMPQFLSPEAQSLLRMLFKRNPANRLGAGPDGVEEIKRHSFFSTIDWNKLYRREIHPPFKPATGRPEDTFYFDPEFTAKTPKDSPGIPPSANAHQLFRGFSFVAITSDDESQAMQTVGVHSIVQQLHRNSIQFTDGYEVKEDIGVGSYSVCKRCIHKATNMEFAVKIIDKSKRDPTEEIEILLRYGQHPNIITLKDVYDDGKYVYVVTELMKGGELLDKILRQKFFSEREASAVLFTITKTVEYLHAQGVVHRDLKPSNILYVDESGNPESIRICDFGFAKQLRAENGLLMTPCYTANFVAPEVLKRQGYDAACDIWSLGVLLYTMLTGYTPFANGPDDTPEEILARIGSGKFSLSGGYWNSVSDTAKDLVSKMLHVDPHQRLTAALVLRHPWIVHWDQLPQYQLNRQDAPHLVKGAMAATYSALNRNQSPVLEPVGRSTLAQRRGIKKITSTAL
Sequence of RSK1 (Q15418 whole entry): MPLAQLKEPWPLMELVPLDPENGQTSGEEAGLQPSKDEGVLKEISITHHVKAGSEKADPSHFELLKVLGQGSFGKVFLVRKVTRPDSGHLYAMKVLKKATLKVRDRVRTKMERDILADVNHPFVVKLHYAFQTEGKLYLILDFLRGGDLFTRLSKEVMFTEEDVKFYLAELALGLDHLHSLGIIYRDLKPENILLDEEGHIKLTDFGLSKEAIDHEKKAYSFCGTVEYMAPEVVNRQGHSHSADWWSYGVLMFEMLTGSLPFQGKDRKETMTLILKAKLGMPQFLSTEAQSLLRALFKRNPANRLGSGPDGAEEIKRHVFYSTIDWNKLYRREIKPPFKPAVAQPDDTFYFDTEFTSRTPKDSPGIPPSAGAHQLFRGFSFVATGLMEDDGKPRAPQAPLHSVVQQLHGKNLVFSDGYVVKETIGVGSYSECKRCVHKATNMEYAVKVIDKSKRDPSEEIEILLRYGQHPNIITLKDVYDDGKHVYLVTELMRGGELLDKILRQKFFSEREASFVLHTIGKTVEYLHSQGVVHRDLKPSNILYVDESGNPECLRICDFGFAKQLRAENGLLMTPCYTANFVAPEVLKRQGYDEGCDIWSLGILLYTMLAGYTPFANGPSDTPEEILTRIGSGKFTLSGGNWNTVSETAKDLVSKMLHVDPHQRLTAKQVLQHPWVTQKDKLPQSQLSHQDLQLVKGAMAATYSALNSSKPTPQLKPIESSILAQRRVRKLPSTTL
Sequence of p70S6K (P23443 whole entry): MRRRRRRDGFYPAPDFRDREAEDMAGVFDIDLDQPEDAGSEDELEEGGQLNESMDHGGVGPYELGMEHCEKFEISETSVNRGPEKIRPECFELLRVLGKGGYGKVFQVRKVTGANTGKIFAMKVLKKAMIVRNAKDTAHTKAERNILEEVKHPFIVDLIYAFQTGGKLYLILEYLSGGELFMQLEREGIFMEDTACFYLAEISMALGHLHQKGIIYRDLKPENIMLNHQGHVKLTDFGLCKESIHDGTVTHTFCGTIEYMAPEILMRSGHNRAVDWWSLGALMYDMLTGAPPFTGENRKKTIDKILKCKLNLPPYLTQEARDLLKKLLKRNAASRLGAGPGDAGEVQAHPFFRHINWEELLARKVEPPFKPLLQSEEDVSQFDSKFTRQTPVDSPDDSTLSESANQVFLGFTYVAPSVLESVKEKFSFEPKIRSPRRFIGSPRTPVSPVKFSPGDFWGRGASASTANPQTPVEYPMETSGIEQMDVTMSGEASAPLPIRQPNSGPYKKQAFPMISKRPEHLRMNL

Consider `CC(=O)OCOC(=O)CN(CC(=O)OCOC(C)=O)c1ccccc1OCCOc1ccccc1N(CC(=O)OCOC(C)=O)CC(=O)OCOC(C)=O` [BAPTA-AM], for which, in test [1], the RPS6 phosphorylation entry is on record as “reduces” and the p70S6K phosphorylation entry was “reduces”. The “calcium levels in cellular lysates” value in test [2] was “reduce the calcium levels”.

As a reminder, the IC50 is the concentration that inhibits the measured activity by half. As to `CC(C)CCC1c2nc(Nc3cc(F)c(O)c(F)c3)ncc2N(C)C(=O)C1C` (stereo not shown) [BI-D1870], the IC50 in [3] is 24 nM; in test [4], 15 nM; in test [5], 18 nM; in [6], 31 nM.

As for `COc1cc2nc(-c3cc(F)ccc3O)nc(NC3CNC[C@H]3C(C)(C)O)c2cc1OC` (stereo partly shown) [CCT, CCT 241533 dihydrochloride], in test [7], the “Chk2 activation in response to etoposide-induced DNA damage” value is recorded as “inhibits”. In [8], the ionizing radiation-induced apoptosis result is given as “blocks”. The “hemoglobin (Hb) in rps29−/− embryos” value in [9] (dihydrochloride) is listed as “rescue Hb”. For the same compound, the “percent inhibition of in vitro kinase activity, p70S6K” value in test [10] was “inhibition”.

For the compound “3-[(3,4-Di-O-acetyl-6-deoxy-α-L-mannopyranosyl)oxy]-5,7-dihydro-2-(4-hydroxyphenyl)-4H-1benzopyran-4-one [SL]”, the “inhibition of Raf” value in test [11] is reported as “Does not inhibit”. Besides, in test [12], the “inhibition of PKC” value was “Does not inhibit”. Besides, the “hemoglobin (Hb) in rps29−/− embryos” value in test [9] is “increase Hb”. Also, the “inhibition of MEK” value in test [13] is “Does not inhibit”.

With `NCCCCCCNS(=O)(=O)c1cccc2ccccc12` [W-5], the “rescue of the vasculature defect” value in [14] was “rescue the vasculature defect”.
